Literature values, collected in US9326991B2, “Nucleotide prodrug compounds and use” (LIGAND PHARMACEUTICALS INC., priority 2012, dated 2016).

Details: human subjects

For `NC(=O)c1ncn([C@@H]2O[C@H](CO)[C@@H](O)[C@H]2O)n1` [Ribavirin, 1-((2R,3R,4S,5R)-3,4-dihydroxy-5-(hydroxymethyl)oxolan-2-yl)-1H-1,2,4-triazole-3-carboxamide], the half-life is given as ~12 days.
